Source: US6391891B1, “Bicyclic compounds as ligands for 5-HT1 receptors” (SmithKline Beecham plc, priority 1997, dated 2002)

What was measured:
5-HT1B receptors = biological target: T1, 5-HT1B receptors (Homo sapiens, UniProt P28222); experiment: 5-HT1B receptor radioligand binding assay ([3H]-5-HT); conditions: CHO cells expressing 5-HT1B receptors; [3H]-5-HT 4 nM; 37° C., 45 minutes; read-out: pKi at 5-HT1B receptors (converted)
T1 construct: expressed in transfected cells; host or cells: CHO cells
Procedure: (§1) The affinities of the compounds of this invention for the 5HT1A, 5-HT1B and 5-HT1D receptors can be determined by the following radioligand binding assay. HEK 293 cells expressing 5-HT1A receptors (4×10^7/ml) are homogenised in Tris buffer and stored in 1 ml aliquots. CHO cells expressing 5-HT1B receptors (4×10^7 cells/ml) are homogenised in Tris buffer and stored in 1.5 ml aliquots. CHO cells expressing 5-HT1D receptors (0.563×10^8/ml) are homogenised in Tris buffer and stored in 1 ml aliquots. 0.4 ml of a cell suspension is incubated with [^3H]-5-HT (4 nM) for 5-HT1B/1D receptors and [^3H]-8-OH DPAT (1 nM) for 5-HT1A receptors in Tris Mg HCl buffer (pH 7.7) and test drug, at 37° C. for 45 minutes. Each test drug is tested at 10 concentrations (0.01 mM to 0.3 nM final concentration), with non-specific binding defined using 0.01 mM 5-HT. The total assay volume is 0.5 ml. Incubation is stopped by rapid filtration using a Packard Filtermate (filters pre-soaked in 0.3% polyethylenimine) and radioactivity measured by Topcount scintillation counting. pKi values are calculated from the IC50 generated by an iterative least squares curve fitting programme.
(§2) The affinities of the compounds of this invention were determined by methods described above.
(§3) 5-HT1A, 5-HT1B and 5-HT1D Receptor Binding

5-HT1A receptors = biological target: T2, 5-HT1A receptors (Homo sapiens, UniProt P08908); experiment: 5-HT1A receptor radioligand binding assay ([3H]-8-OH DPAT); conditions: HEK 293 cells expressing 5-HT1A receptors; [3H]-8-OH DPAT 1 nM; 37° C., 45 minutes; read-out: pKi at 5-HT1A receptors (converted)
T2 construct: expressed in transfected cells; host or cells: HEK 293 cells
T2 sequence (P08908 1-422): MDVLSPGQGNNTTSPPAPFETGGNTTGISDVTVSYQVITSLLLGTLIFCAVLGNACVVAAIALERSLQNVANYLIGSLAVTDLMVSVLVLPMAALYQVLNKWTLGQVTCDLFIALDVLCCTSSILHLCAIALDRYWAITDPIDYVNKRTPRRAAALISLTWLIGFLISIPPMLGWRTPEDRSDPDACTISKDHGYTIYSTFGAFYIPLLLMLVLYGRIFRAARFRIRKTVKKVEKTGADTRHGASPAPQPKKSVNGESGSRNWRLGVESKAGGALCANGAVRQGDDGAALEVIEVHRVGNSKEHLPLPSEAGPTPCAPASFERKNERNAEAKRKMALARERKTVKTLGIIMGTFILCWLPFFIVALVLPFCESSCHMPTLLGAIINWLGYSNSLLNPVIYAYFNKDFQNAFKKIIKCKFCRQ
Procedure: as §1, §2, §3

5-HT1D receptors = biological target: T3, 5-HT1D receptors (Homo sapiens, UniProt P28221); experiment: 5-HT1D receptor radioligand binding assay ([3H]-5-HT); conditions: CHO cells expressing 5-HT1D receptors; [3H]-5-HT 4 nM; 37° C., 45 minutes; read-out: pKi at 5-HT1D receptors (converted)
T3 construct: expressed in transfected cells; host or cells: CHO cells
Procedure: as §1, §2, §3

Measured: Ki

T1 sequence (P28222 whole entry): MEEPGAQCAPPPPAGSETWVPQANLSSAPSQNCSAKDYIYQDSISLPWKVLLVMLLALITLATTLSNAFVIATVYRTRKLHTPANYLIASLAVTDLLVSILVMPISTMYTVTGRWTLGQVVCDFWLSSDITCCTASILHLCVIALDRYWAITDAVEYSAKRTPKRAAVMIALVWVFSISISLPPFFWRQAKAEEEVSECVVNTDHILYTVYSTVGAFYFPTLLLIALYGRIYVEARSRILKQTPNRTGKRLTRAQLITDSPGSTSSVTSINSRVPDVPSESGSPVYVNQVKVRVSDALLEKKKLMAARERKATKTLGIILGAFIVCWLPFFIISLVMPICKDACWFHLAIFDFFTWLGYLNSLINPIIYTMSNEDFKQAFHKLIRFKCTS
T3 sequence (P28221 whole entry): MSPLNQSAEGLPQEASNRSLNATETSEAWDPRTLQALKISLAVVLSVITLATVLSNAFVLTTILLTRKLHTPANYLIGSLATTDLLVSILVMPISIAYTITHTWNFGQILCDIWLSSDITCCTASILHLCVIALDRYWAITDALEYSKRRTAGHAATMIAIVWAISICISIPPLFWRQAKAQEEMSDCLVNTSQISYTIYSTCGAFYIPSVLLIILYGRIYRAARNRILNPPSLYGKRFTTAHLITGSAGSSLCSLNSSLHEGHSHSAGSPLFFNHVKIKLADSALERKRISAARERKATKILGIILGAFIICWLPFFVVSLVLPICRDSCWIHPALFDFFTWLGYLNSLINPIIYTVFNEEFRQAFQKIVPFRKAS

CN1CCC(c2c[nH]c3ccc(NC(=O)Nc4ccc(-c5ccncc5)c5ccccc45)cc23)CC1 [Example 1, N-[3-(1-Methylpiperdin-4-yl)indol-5-yl]-N′-[4-(pyridin-4-yl)naphth-1-yl]-urea]
< 0.01 µM: all assays above

CN1CCC(c2c[nH]c3ccc(NC(=O)Nc4ccc(-c5ccncc5)c(Cl)c4Cl)cc23)CC1 [Example 3, N-[2,3-Dichloro-4-(pyridin-4-yl)phenyl]-N′-[3-(1-methylpiperidin-4-yl)indol-5-yl]-urea]
< 0.01 µM: all assays above

CN1CCC(c2c[nH]c3ccc(NC(=O)Nc4ccc(-c5ccncc5)cc4Cl)cc23)CC1 [Example 4, N-[2-Chloro-4-(pyridin-4-yl)phenyl]-N′-[3-(1-methylpiperidin-4-yl)indol-5-yl]-urea]
< 0.01 µM: all assays above

CN1CCC(c2c[nH]c3ccc(NC(=O)Nc4ccc(-c5ccncc5)c(Cl)c4)cc23)CC1 [Example 8, N-[3-Chloro-4-(pyridin-4-yl)phenyl]-N′-[3-(1-methylpiperidin-4-yl)indol-5-yl]-3-urea]
< 0.01 µM: all assays above

CN1CC=C(c2csc3ccc(NC(=O)Nc4ccc(-c5ccncc5)c(Cl)c4)cc23)CC1 [Example 9, N-[3-Chloro-4-(pyridin-4-yl)phenyl]-N′-[3-(1-methyl-1,2,5,6-tetrahydropyridin-4-yl)benzo[b]thiophen-5-yl]-urea]
< 0.01 µM: all assays above

CN1CC=C(c2csc3ccc(NC(=O)Nc4ccc(-c5ccncc5)c5ccccc45)cc23)CC1 [Example 10, N-[3-(1-Methyl-1,2,5,6-tetrahydropyridin-4-yl)benzo[b]thiophen-5-yl]-N′-[4-(pyridin-4-yl)naphth-1-yl]-urea]
< 0.01 µM: all assays above

CN1CCC(c2csc3ccc(NC(=O)Nc4ccc(-c5ccncc5)c5ccccc45)cc23)CC1 [Example 12, N-[3-(1-Methylpiperidin-4-yl)benzo[b]thiophen-5-yl]-N′-[-4-(pyridin-4-yl)naphth-1-yl]-urea]
< 0.01 µM: all assays above
